Results from patent US20150025139A1, “INGENOL MEBUTATE IN COMBINATION WITH CRYOTHERAPY FOR THE TREATMENT OF ACTINIC KERATOSIS” (LEO Laboratories Limited, priority 2012, published 2015).

What was measured:
[1] = system: actinic keratosis (AK) lesions on the face or scalp; assay type: in vivo, human
Method: In the context of the present invention partial clearance of AKs are defined as 75% or greater reduction in the number of clinically visible AKs in the selected treatment area from baseline.
A Phase 3, multi-centre, randomised, two-arm, parallel group, double-blinded, vehicle-controlled, 12-month study is conducted (See FIG. 1). Eligible subjects with 4 to 8 clinically typical, visible and discrete AKs within a contiguous 25 cm^2 treatment area on the face and scalp will be randomised to one of two arms. Treatment Arm A will receive cryotherapy to all visible AKs (4-8 lesions, “baseline lesions”) in the selected treatment area then, after 2-4 weeks healing time, field treatment with ingenol mebutate (PEP005 Gel) 0.015% once daily for 3 consecutive days. Treatment Arm B will receive cryotherapy to all visible AKs (4-8 lesions, “baseline lesions”) in the selected treatment area then, after 3 weeks healing time, field treatment with vehicle gel once daily for 3 consecutive days.
Eligible subjects include male or female, at least 18 years of age, with 4 to 8 clinically typical, visible, and discrete AK lesions within a 25 cm^2 contiguous treatment area on the face or scalp. Exclusion criteria stipulate restrictions for prohibited treatments and procedures prior to study entry. This sample is representative of the population which will be treated for AK.
A Phase 3, multi-centre, randomised, two-arm, parallel group, double-blinded, vehicle-controlled, 12-month study is being conducted (See FIG. 1). Eligible subjects with 4 to 8 clinically typical, visible and discrete AKs within a contiguous 25 cm^2 treatment area on the face and scalp were randomised to one of two arms. Treatment Arm A received cryotherapy to all visible AKs (4-8 lesions, “baseline lesions”) in the selected treatment area then, after 2-4 weeks healing time, they received field treatment with ingenol mebutate (PEP005 Gel) 0.015% once daily for 3 consecutive days. […]

[2] = system: actinic keratosis, face and scalp; conditions: earlier Phase 3 studies, cited from earlier work
[3] = Phase 3 study: adverse events related to trial medication; assay type: in vivo, human; conditions: face or scalp, week 11 data
Method: (§1) For safety, AEs and LSRs will be recorded. Local skin responses will be graded using a scale that was developed by the sponsor and used in the previous clinical studies. This is a defined grading scale to ensure that a clear and systematic assessment of LSRs is performed. The LSR Grading Scale employs a 0 to 4 scoring system for each category to be assessed with photographs and definitions of each grade. The LSR Grading Scale has been published previously.
Local skin responses will be converted into MedDRA preferred terms applying the following conversions seen below. These adverse events will be reported separately from adverse events recorded on the adverse event form in the CRF.
as §1, with “LSRs were” for “LSRs will be”, “responses were” for “responses will be”, “This was” for “This is”, “grade.” for “grade. The LSR Grading Scale has been published previously.”
The most common adverse effect is application site pain. None of the severe adverse events were related to trial medication. All adverse effects related to trial medication were resolved at week 11.

[4] = Phase 3 study: local skin responses (composite LSR score); assay type: in vivo, human
Method: as §1
The incidence and grade of LSRs in the LSR safety set will be summarized by treatment arm overall and at each visit by anatomical location. Local skin response grades will be summarized by frequency counts and descriptive statistics by treatment arm and visit for each of the six individual LSRs: erythema, flaking/scaling, crusting, swelling, vesiculation/pustulation, and erosion/ulceration.
A composite (sum) score will be obtained by summing the six individual LSR scores at each visit. The composite score and change from baseline will be summarized by treatment arm at each visit using descriptive statistics. The first visit at which the highest sum score is attained will be summarized by treatment arm. For those subjects whose LSR sum score increased in intensity from baseline, the first visit at which the LSR returned to the baseline intensity will be presented by treatment arm.
as §1, with “LSRs were” for “LSRs will be”, “responses were” for “responses will be”, “This was” for “This is”, “grade.” for “grade. The LSR Grading Scale has been published previously.”

SMILES: C/C=C(/C)C(=O)O[C@H]1C(C)=C[C@]23C(=O)[C@@H](C=C(CO)[C@@H](O)[C@]12O)[C@H]1[C@@H](C[C@H]3C)C1(C)C [ingenol mebutate]
- percentage of patients with complete clearance (no clinically visible AKs) ([1]; 72 h): 60.5%
- percentage of patients with partial clearance (75% or greater reduction in AKs) ([1]; 72 h): 77.8%
- Median percent reduction from baseline in AK lesion count ([1]; week 11): 100.0%
- sustained clearance ([2]; 12 month following treatment): around 50%
- complete field clearance ([2]; face and scalp): 37-47%
- tolerability of treatment after cryosurgery [3]: well tolerated
- composite LSR score at baseline ([4]; baseline, before cryosurgery and topical treatment): 2.2
- mean (SD) composite LSR score at peak ([4]; peak at visit 3): 8.5 (4.7)
- mean composite LSR score, course after topical treatment ([4]; week 5, 2 weeks after topical treatment): return to a score similar to that of earlier visits
